The record followed here is US8940857B2, “Methods and compositions for enhancing delivery of double-stranded RNA or a double-stranded hybrid nucleic acid to regulate gene expression in mammalian cells” (Marina Biotech, Inc., priority 2004, dated 2015).

Oligonucleotides are written 5' to 3', each unit as a sugar letter and its base; * is a phosphorothioate linkage, no mark a phosphodiester; rarer units and linkages stand in square brackets, end groups in braces. Plain capitals give the bases only. No end group written: not given here. maleimide = maleimide group (amino-terminal modification); d = 2'-deoxy (DNA); r = 2'-OH (RNA)

The subject of one series is epithelial monolayers. The series is described as follows: Peptide-mediated changes in trans-epithelial electrical resistance (TEER), permeation across epithelial monolayers. Type of series: cell-based. As to conditions: measured by peptide-mediated changes in TEER.
For “BrAc-GWTLNSAGYLLGKINLKALAALAKKILamide (SEQ ID NO: 3) [PN0064]”, the “Effects (activity to enhance permeation across epithelial monolayers)” value (from here on “Effects”) was “+”.
Turning to “BrAc-KLALKLALKALKAALKLA-amide (SEQ ID NO: 4) (HELM PEPTIDE1{[O=C(CBr)[*:2]].K.L.A.L.K.L.A.L.K.A.L.K.A.A.L.K.L.A.[am]}$$$$V2.0; SMILES CC(C)C[C@H](NC(=O)[C@H](C)NC(=O)[C@H](CCCCN)NC(=O)[C@H](CC(C)C)NC(=O)[C@H](C)NC(=O)[C@H](CC(C)C)NC(=O)[C@H](CCCCN)NC(=O)[C@H](CC(C)C)NC(=O)[C@H](C)NC(=O)[C@H](CC(C)C)NC(=O)[C@H](CCCCN)NC(=O)CBr)C(=O)N[C@@H](CCCCN)C(=O)N[C@@H](C)C(=O)N[C@@H](C)C(=O)N[C@@H](CC(C)C)C(=O)N[C@@H](CCCCN)C(=O)N[C@@H](CC(C)C)C(=O)N[C@@H](C)C(N)=O) [PN0068]”, the “Effects” value is on record as “+”.
The same measure, in the same setting: the entry for “GRKKRRQRRRPQ-amide (SEQ ID NO: 5) (GRKKRRQRRRPQ-NH2) [PN0069]” is “−”; for “Maleimide-GLGSLLKKAGKKLKQPKSKRKV-amide (SEQ ID NO: 12) (maleimide-GLGSLLKKAGKKLKQPKSKRKV-NH2) [PN283]” it is “+”.
On the same count and under the same terms, the entry for “NH2-AAVALLPAVLLALLAPRKKRRQRRRPPQ-amide (SEQ ID NO: 8) (H-AAVALLPAVLLALLAPRKKRRQRRRPPQ-NH2) [PN027]” is “+”; for “NH2-KETWWETWWTEWSQPGRKKRRQRRRPPQ-amide (SEQ ID NO: 11) (H-KETWWETWWTEWSQPGRKKRRQRRRPPQ-NH2) [PN183]” it is “+”.
On the same count and under the same terms, to “NH2-LLETLLKPFQCRICMRNFSTRQARRNHRRRHRR-amide (SEQ ID NO: 9) (H-LLETLLKPFQCRICMRNFSTRQARRNHRRRHRR-NH2; cysteine pairing not given here) [PN202]” belongs “+”.
With “NH2-RRRQRRKRGGDIMGEWGNEIFGAIAGFLG-amide (SEQ ID NO: 10) (H-RRRQRRKRGGDIMGEWGNEIFGAIAGFLG-NH2; listed as Influenza virus) [PN250]”, the “Effects” value is “+”.
Same read-out and setting: to “RKKRRQRRRPPQCAAVALLPAVLLALLAP-amide (SEQ ID NO: 1) (RKKRRQRRRPPQCAAVALLPAVLLALLAP-NH2) [PN0028]” belongs “+”; to “RQIKIWFQNRRMKWKK-amide (SEQ ID NO: 2) (RQIKIWFQNRRMKWKK-NH2) [PN0058]”, “+”.
As to RRRRRRR (SEQ ID NO: 6) [PN0071], the “Effects” value is “−”.

The test system of the next series is beta-galactosidase mRNA. The series is described as follows: Transfection of 9L/LacZ cells with siRNA and lipofectamine, beta-Gal/BCA assay (silencing of beta-galactosidase). It is filed as cell-based. As to conditions: 9L/beta-gal cells, transfected with lipofectamine; control = cells transfected by lipofectamine alone; lower = greater efficacy. The procedure: Transfection of 9L/LacZ Cells:
• a) Take saturated 9L/LacZ culture from T75 flask, detach cell and dilute into 10 ml with complete medium (DMEM, 1× PS, 1× Na Pyruvate, 1× NEAA). • b) Further dilute the cell to 1:15, and seed 100 μl into each 96 well, which should give 50% confluence cell the next day for transfection. […] Flow Cytometry Measurement of FITC/FAM Conjugated siRNA • a) After transfection, incubate cell for at least 3 hours. • b) Wash with 200 μl PBS. • c) Detach cell with 15 μl TE, incubate at 37° C. • d) Re-suspend five wells with 30 μl FACS solution (PBS with 0.5% BSA, and 0.1% sodium Azide) • e) Combine all five wells into a tube. • f) Add PI 5 μl into each tube. • g) Analyze the cells with fluorescence activated cell sorting (FCAS) with BD FACscan instrument according to manufacture's instruction.
The transfection was performed with either regular siRNA or cholesterol-conjugated siRNA with lipofectamine (Invitrogen) on 9L/beta-gal cells. The siRNA was designed to specifically knock down beta-galactosidase mRNA and activities are expressed as percentage of beta-gal activities from control (transfected cells by lipofectamine alone). […]
Take “AA: siRNA construct with no cholesterol conjugated to any of the ends of the sense or antisense RNA strands (SEQ ID NO: 14/15) (sense rCrUrArCrArCrArArArUrCrArGrCrGrArUrUrUdTdT; antisense rArArArUrCrGrCrUrGrArUrUrUrGrUrGrUrArGdTdT)”: the “Activity (% of control): beta-galactosidase activity remaining after the transfection” value is 23.12 % of control.
